For data set [1], the target named is T1, EGF receptor tyrosine kinase (Homo sapiens, UniProt P00533).
T1 construct: WGA-purified EGF receptor from A431 cells; endogenous in cells; host or cells: A431 cells (solubilized, receptor enriched on WGA-agarose)
In kind it is biochemical. Conditions: for IC50: read-out: IC50 (concentration of inhibitor required to inhibit 50% of polyGAT phosphorylation).

Data set [2] concerns the target T2, EGF receptor (Homo sapiens, UniProt P00533). Conditions: read-out: Km for ATP in autophosphorylation; 15° C.; 10-s assay. How it is done: ATP and EGF Dependence of Autophosphorylation
With use of the 10-s assay protocol, the EGF concentration dependence of EGFRK autophosphorylation is determined.

The target of data set [3] is T2, EGF receptor. Description: Inhibition of EGFR autophosphorylation (A431 cell lysate, EGF stimulation). In kind it is biochemical. More on the design: EGF receptor in membranes of A431 cells; host or cells: membranes of A431 cells. How it is done: Inhibition of EGFR Autophosphorylation
A431 cells were grown to confluence on human fibronectin coated tissue culture dishes. After washing 2 times with ice-cold PBS, cells were lysed by the addition of 500 μl/dish of lysis buffer (50 mmol Hepes, pH 7.5, 150 mmol NaCl, 1.5 mmol Mg Cl2, 1 mmol EGTA, 10% glycerol, 1% triton X-100, 1 mmol PMSF, 1 mg/ml aprotinin, I mg/ml leupeptin) and incubating 5 minutes at 4° C. After EGF stimulation ([…] 10 minutes at 37° C.) immunoprecipitation was performed with anti EGF-R (Ab 108) and the autophosphorylation reaction (50 μl aliquots, 3 μCi [γ-^32 P]ATP) sample was carried out in the presence of 2 or 10 μM of compound, for 2 minutes at 4° C. The reaction was stopped by adding hot electrophoresis sample buffer. SDS-PAGE analysis (7.5% els) was followed by autoradiography and the reaction was quantitated by densitometry scanning of the x-ray films. In order to test the compounds for selective inhibition, the procedure is repeated using PDGF stimulation in place of EGF stimulation.

The target in data set [4] is T2, EGF receptor. Details: EGF receptor in membranes of A431 cells; host or cells: membranes of A431 cells. Conditions: cited from earlier work.
The subject of data set [5] is cyclic adenosine 3',5'-monophosphate (cAMP)-dependent protein kinase. Conditions: in words; compared with EGF receptor autophosphorylation; cited from earlier work.
The conditions of data set [6]: as a result of inhibiting other protein kinases; cited from earlier work.
Another data set has as its system other protein kinases. Conditions: PTK inhibitors which compete with ATP; cited from earlier work.

Here are results for seven compounds from patent US5196446A (priority 1991, dated 1993).

In general, Km refers to the substrate concentration at which the rate is half of its maximum. For `Nc1ncnc2c1ncn2[C@@H]1O[C@H](COP(=O)(O)OP(=O)(O)OP(=O)(O)O)[C@@H](O)[C@H]1O` [ATP, adenosine triphosphate], the Km was determined as 2.9 µM in data set [1] (read-out: Km for ATP in the poly(GAT) assay) and 7.2 µM at EGF receptor [2]. As for `N#CC(C#N)=Cc1c[nH]cn1` [Example 3, 4-Imidazolidene malononitrile], in data set [1], the IC50 worked out at 2.6 mM. Turning to `N#CC(C#N)=Cc1ccc2[nH]ccc2c1` [Example 5, 5-Indolidene malononitrile], the IC50 in data set [1] came out at 2.2 mM. `N#CC(=Cc1ccc2c(c1)OCO2)c1ccccn1` [Example 8, 2-(2-pyridyl)-3-[3,4-(methylenedioxy)phenyl]-2-propenenitrile] registered an IC50 against EGF receptor [3] of 0.001 mM. As for `O=CN/C=C/c1cc(O)ccc1O` [erbstatin], the “concentration required to inhibit EGF receptor autophosphorylation” value on EGF receptor [4] (in words, compared with cAMP-dependent protein kinase) is “Low concentrations”. Further, the “inhibition of EGF receptor autophosphorylation” value on EGF receptor [4] (membranes of A431 cells) is “inhibits the autophosphorylation of the EGF receptor”. The “concentration required to inhibit cAMP-dependent protein kinase” value in data set [5] was “much higher concentrations”. Take `O=c1c(-c2ccc(O)cc2)coc2cc(O)cc(O)c12` [genistein]: the cytotoxicity entry in data set [6] is listed as “highly cytotoxic”. For the same compound, the “inhibition of other protein kinases” value in the data set on other protein kinases is “inhibit other protein kinases”. `O=c1c(O)c(-c2ccc(O)c(O)c2)oc2cc(O)cc(O)c12` [quercetin]: the cytotoxicity result in data set [6] is “highly cytotoxic”. The “inhibition of other protein kinases” value in the data set on other protein kinases is “inhibit other protein kinases”.
